Patent publication US20110104301A1, “METHODS OF REDUCING PAIN AND INFLAMMATION” (Georgetown University, A Congressionally Chartered …, priority 2008, published 2011)

Tests used:
Assay type in all cases: cell-based
[1] = target: T1, mutant S502A/S800A TRPV1 (Rattus norvegicus, UniProt O35433, S502A/S800A); assay: Heat activation in oocytes expressing mutant S502A/S800A TRPV1
T1 construct: expressed in transfected cells; host or cells: Xenopus laevis oocytes (cRNA injection)
Method: Oocyte electrophysiology. […] Oocytes were placed in a Perspex chamber and continuously superfused (5 ml min-1) with Ca2+-free solution containing (in mM): 100 NaCl, 2.5 KCl, 5 HEPES, 1 MgCl2 and titrated to pH 7.3 with 5 mM NaOH. For solutions <pH 6.0, HEPES was replaced with either 5 mM MES or 5 mM sodium citrate. Oocytes were routinely voltage-clamped at -60 mV at 22-23° C.

[2] = target: T2, dTRPA1-mN chimera (UniProt Q7Z020+Q8BLA8); assay: Current-voltage recordings of chimera dTRPA1-mN; conditions: mouse N-terminus substituted
T2 construct: mouse TRPA1 N-terminus (720 amino acids); expressed in transfected cells
T2 sequence (Q8BLA8+Q7Z020 fused, change not shown): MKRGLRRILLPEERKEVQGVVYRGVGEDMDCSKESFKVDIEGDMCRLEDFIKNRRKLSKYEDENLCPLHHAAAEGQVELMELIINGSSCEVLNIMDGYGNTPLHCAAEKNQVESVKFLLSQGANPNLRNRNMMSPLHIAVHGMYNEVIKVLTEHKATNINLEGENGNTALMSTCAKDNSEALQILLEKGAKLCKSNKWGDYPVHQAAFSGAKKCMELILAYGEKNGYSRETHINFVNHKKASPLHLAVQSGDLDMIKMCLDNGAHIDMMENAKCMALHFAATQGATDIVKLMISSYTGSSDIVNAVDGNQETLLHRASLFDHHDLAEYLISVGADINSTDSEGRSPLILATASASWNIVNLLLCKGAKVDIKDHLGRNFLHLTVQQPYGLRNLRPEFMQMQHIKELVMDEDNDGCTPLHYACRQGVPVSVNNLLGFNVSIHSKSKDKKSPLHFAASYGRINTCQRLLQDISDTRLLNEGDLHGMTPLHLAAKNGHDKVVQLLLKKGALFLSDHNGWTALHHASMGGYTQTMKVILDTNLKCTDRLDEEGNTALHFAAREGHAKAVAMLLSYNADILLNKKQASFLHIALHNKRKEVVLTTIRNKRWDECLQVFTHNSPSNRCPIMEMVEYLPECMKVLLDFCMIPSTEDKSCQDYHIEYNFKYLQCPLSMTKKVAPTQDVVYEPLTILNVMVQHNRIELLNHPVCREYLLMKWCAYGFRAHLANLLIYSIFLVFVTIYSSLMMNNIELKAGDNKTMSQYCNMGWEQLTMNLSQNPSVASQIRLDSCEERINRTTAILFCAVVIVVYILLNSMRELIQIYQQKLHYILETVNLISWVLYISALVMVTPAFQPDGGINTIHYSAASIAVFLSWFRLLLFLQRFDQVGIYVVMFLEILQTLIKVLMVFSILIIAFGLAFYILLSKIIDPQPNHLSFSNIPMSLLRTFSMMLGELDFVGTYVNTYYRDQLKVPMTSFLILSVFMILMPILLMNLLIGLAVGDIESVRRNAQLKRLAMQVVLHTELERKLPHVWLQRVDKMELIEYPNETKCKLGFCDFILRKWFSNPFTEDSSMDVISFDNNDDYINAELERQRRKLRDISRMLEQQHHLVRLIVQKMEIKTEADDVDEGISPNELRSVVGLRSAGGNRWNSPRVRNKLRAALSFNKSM
Method: (§1) A genetic approach was used to identify critical sites in TRPA1 and TRPV1 required for activation by general anesthetics. Drosophila TRPA1 is insensitive to desflurane (at concentrations up to 3 mM). […] Note that dTRPA1 is insensitive to AITC. Next, several chimeric TRP proteins containing dTRPA1 (unresponsive to desflurane) and mTRPA1 were tested. For the dTRPA1-mN chimera, the mouse 720 amino acid N-terminus was exchanged for the drosophila N-terminus. The N-terminal domain contains essential binding sites for AITC, and therefore studying this chimera tests an important role for the N-terminus in anesthetic-sensing. […] The mTRPA1-dTM5 construct was then studied, which is the mouse protein containing the fifth transmembrane domain of the drosophila protein.

[3] = target: T3, mouse TRPA1 (Mus musculus, UniProt Q8BLA8); assay: Current-voltage recordings in mTRPA1-expressing HEK293 cells; conditions: desflurane 1 mM
T3 construct: expressed in transfected cells; host or cells: HEK293
T3 sequence (Q8BLA8 whole entry): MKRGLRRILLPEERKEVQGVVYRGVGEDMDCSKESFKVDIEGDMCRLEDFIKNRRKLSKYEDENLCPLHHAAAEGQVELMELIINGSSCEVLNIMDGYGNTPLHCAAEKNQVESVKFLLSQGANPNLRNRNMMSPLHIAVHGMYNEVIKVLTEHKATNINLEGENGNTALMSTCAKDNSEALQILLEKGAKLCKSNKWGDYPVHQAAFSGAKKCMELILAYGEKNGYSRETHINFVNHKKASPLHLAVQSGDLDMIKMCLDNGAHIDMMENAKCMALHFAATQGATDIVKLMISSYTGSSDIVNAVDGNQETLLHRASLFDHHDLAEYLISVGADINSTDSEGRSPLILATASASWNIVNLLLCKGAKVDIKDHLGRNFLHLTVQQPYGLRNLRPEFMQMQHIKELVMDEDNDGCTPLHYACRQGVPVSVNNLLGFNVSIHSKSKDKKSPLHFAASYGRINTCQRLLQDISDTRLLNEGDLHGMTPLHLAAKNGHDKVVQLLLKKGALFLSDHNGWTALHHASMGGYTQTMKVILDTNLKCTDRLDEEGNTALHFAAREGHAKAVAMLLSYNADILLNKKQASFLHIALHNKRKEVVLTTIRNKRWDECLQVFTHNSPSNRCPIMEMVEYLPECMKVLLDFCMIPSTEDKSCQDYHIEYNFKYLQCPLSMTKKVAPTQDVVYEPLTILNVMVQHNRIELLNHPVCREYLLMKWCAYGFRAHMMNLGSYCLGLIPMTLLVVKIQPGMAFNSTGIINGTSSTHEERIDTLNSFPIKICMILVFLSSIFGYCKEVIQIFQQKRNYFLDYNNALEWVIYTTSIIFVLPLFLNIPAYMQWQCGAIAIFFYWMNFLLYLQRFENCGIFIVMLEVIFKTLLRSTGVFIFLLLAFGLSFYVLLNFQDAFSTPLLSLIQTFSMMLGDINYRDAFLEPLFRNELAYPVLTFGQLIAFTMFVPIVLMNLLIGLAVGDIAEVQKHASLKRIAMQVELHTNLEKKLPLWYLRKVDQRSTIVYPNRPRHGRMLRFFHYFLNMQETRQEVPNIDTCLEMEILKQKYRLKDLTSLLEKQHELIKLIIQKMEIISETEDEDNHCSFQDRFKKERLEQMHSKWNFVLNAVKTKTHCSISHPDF
Method: as §1

T1 sequence (O35433 whole entry S502A/S800A): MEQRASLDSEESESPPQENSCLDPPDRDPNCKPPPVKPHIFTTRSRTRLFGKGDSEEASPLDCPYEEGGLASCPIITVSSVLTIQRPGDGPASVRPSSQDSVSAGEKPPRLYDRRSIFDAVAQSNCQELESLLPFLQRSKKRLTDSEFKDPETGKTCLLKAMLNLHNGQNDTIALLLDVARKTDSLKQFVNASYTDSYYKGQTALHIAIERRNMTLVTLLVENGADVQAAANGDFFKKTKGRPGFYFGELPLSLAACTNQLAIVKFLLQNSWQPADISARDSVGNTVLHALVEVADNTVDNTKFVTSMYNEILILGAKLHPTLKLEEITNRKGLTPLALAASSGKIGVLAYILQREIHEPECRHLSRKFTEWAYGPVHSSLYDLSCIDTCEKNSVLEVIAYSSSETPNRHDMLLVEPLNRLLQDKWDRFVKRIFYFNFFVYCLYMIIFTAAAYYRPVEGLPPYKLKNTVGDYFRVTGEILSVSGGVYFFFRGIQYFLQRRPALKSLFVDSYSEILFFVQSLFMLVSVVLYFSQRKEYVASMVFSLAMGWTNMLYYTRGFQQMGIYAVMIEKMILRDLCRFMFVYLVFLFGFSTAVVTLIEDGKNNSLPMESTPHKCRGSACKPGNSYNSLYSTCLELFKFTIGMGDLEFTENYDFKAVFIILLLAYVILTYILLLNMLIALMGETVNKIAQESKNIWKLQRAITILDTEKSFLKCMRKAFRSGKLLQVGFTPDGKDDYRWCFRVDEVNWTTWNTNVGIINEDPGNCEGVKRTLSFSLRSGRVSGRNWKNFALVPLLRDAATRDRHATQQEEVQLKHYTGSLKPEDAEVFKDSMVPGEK

With `FC(F)OC(Cl)C(F)(F)F` (stereo not shown) [isoflurane] the “Temperature threshold, mutant S502A/S800A TRPV1” value ([1]; PDBu+isoflurane, n=3) was 37.3±0.7 °C and the “Temperature threshold, mutant S502A/S800A TRPV1” value ([1]; isoflurane, n=5) was 39.4±1.9 °C.

`FC(F)OC(F)C(F)(F)F` (stereo not shown) [desflurane] was tested, and the “Response of dTRPA1-mN chimera” value [2] was “no responses” and the “Activation of mouse TRPA1” value [3] was “activates”.
